In data set [1] the test system is MCP-1. Description: Gene expression in LPS activated RAW 264.7 macrophages, MCP-1. In kind it is cell-based, mouse. Particulars: RAW 264.7, 10 μM, LPS 1 μg/ml, RNA 3 hrs after activation, vs vehicle treated activated cells. As for the experimental part:
(§1) RAW 264.7 macrophages, a mouse cell line (ATCC # TIB 71), were grown in Dulbecco's modified Eagle's medium (DMEM) with 4 mM L-glutamine adjusted to contain 1.5 g/L sodium bicarbonate, 4.5 g/L glucose, and 10% heat inactivated fetal bovine serum. Cells were grown in tissue culture flasks and seeded at appropriate density into 6 wells tissue culture plates. Four million Raw cells in half a milliliter were stimulated with 1 μg/ml LPS E. coli 055:B5 (DIFCO Laboratories). The mouse macrophages were pre-treated for one hour with controls or 10 μM of test compounds, and later on activated with LPS. RNA samples were extracted from the cells 3 hrs after activation and gene expression levels were analyzed by real-time RT-PCR. In parallel, supernatants were collected and secretion of inflammatory mediators was analyzed using ELISA techniques according to the instructions of the kit manufacturer.
(§2) Total RNA is prepared using SV total RNA isolation system (Promega). The cells were homogenized in lysis buffer. The lysates were transferred to an RNA isolation column, treated with DNAse, washed and eluted according to kit instructions. RNA concentrations were determined using GeneQuant II (Pharmacia-Amersham). Complementary DNA (cDNA) was synthesized from total RNA using […] II reverse transcriptase (Life Technologies). 2 μg of total RNA were combined with an oligo (dT)15 primer, 0.5 mM dNTP mix, 8 units of reverse transcriptase and other reaction components up to a final volume of 20 μl, according to the kit instructions. The reaction mixture was incubated at 42° C. for 45 min and inactivated at 70° C. for 15 minutes. Quantitative real-time RT-PCR included 1 μl of the cDNA, 300 nM of the appropriate forward and reverse primers (according to the gene monitored) and 7.5 μl of the reaction mix containing buffer, nucleotides, Taq polymerase and SYBER green (SYBER Green master mix, Applied Biosystems), in a total reaction volume of 15 μl. Gene amplification was obtained using the GeneAmp 5700 sequence detection system (Applied Biosystems). Amplification included one stage of 10 minutes at 95° C. followed by 40 cycles of a 2-steps loop: 20 seconds at 95° C., and 1 minute at 60° C. During each annealing step, the amount of the amplified product was measured by the fluorescence of the double strand DNA binding dye, SYBER Green. The cycle of threshold (CT), representing the PCR cycle at which an increase in fluorescence above a baseline signal can be first detected, was determined for each product. A delay of one PCR cycle in the CT is translated into a two-fold decrease in starting template molecules and vice versa. The changes in the CT of the specific gene product were normalized to the changes in the CT of housekeeping cyclophilin or GAPDH as reference genes. Results were expressed as fold increase of gene expression in treated or untreated activated cells above the resting cells, after normalization to cyclophilin or GAPDH. Cells were also tested for viability to confirm that any effect on gene expression was indeed due to modulation of transcription of a specific target and not to cytoxicity.
(§3) Results were further expressed as percent inhibition of gene expression in compound treated activated cells over vehicle “treated” activated cells. Since the modulation of IL-10 and TNF-α gene expression by the compounds of the invention is relatively minor, it is not reported. […] Inhibition above 50% was considered significant.

Data set [2] deals with COX-2. Description: Gene expression in LPS activated RAW 264.7 macrophages, COX-2. Type of data set: cell-based, mouse. The conditions noted are these: RAW 264.7, 10 μM, LPS 1 μg/ml, RNA 3 hrs after activation, vs vehicle treated activated cells. The procedure: as §1, §2, §3
Data set [3] has as its system iNOS. Description: Gene expression in LPS activated RAW 264.7 macrophages, iNOS. In kind it is cell-based, mouse. Particulars: RAW 264.7, 10 μM, LPS 1 μg/ml, RNA 3 hrs after activation, vs vehicle treated activated cells. As for the experimental part:
as §1, §2, §3

Data set [4] relates to IL-1β. Description: Gene expression in LPS activated RAW 264.7 macrophages, IL-1β. Type of data set: cell-based, mouse. Particulars: RAW 264.7, 10 μM, LPS 1 μg/ml, RNA 3 hrs after activation, vs vehicle treated activated cells. The procedure:
as §1, §2, §3

For data set [5], the system named is CB1 related cannabimimetic activity. Description: Safety: body temperature, catalepsy, spontaneous locomotor activity, elevated plus maze, sensitivity to touch. The conditions noted are these: 2 mg/kg i.v. In kind it is in vivo, ICR male mice. The procedure:
In the present study, impact of compounds of the invention on the central nervous system was measured by monitoring the body temperature, catalepsy and spontaneous locomotor activity of rodents. These activities are part of the Tetrad assays which are indicative, if all parameters are affected, of CB1 mediated activity. In addition, lack of CNS psychomimetic effect was assessed in the elevated plus maze model. Finally, sensitivity to touch was determined in order to evaluate peripheral CB1 related activity.
ICR male mice (average body weight 25 g, Harlan, Israel) were administered the compounds of the invention i.v. at a dose of 2 mg/kg and at a volume dose of 5 ml/kg. The psychoactive cannabinoid HU-210 was used as positive control at the 100-fold lower dose of 0.02 mg/kg i.v. The following measurements were made starting 15 minutes after compound administration. All tests were completed for each animal within approximately 10 minutes. Rectal temperature was monitored using a thermistor probe (YSI model 400, USA). Spontaneous locomotion was assessed using the open field methodology. The number of squares crossed by the animals were recorded and analyzed during a period of three minutes. At the end of the open field test, the animals were tested for catalepsy symptoms. This was carried out by gently forcing the animal to stand on its hind paws when its front paws are holding on an elevated beam. The time for the animal to step down of the beam was measured in seconds. A normal animal withdraws the beam immediately whereas cataleptic animal tend to stay on the beam. The longer the animal stays leaning on the beam, the more cataleptic the animal is. The behavior of the animals was then assessed in the elevated plus maze. The elevated plus maze consists of two open arms and two arms that are enclosed by high walls (arms 30×10 cm, wall height 20 cm). The elevated plus maze is usually elevated 80 cm above the floor. The mouse is placed on the maze head facing an open arm, and the time spent in the different compartments of the maze (open arms, closed arms and central area) are measured for the next 5 minutes. Results are expressed as percent of the time spent in the open arms, normal animals preferring to stay in the closed arms of the maze. Finally, animals were gently touched by an observer blinded for the treatment group and their sensitivity scored according to the following scale: 0 not sensitive, 1 sensitive and 2 highly sensitive. Results are expressed as average±SEM. At the end of the study, the animals were euthanized.

As for `CCCCCCC(C)(C)c1cc(O)c2c(c1)OC1C=CCCC21` (centres unmarked) [Compound C6S-2, 3-(1,1-Dimethylheptyl)-5a,8,9,9a-tetrahydro-dibenzofuran-1-ol], in data set [1], the “Percent inhibition of gene expression, MCP-1” value (“Percent inhibition … MCP-1” for short) was 44%. Moreover, in data set [2], the “Percent inhibition of gene expression, COX-2” value (from here on “Percent inhibition … COX-2”) was 61%. Besides, in data set [3], the “Percent inhibition of gene expression, iNOS” value (from here on “Percent inhibition … iNOS”) came out at 23%. Besides, the “Percent inhibition of gene expression, IL-1β” value (“Percent inhibition … IL-1β” for short) in data set [4] worked out at 58%. In addition, in data set [5], the “adverse cannabimimetic activities in any of the parameters monitored” value (from here on “adverse cannabimimetic activities in any”) is “None”.
In the case of `CCCCC(C)(C)c1cc(O)c2c(c1)OC1(C)CCCC21` (stereo not drawn) [Compound C5S-1, 6-(1,1-dimethylpentyl)-8a-methyl-2,3,3a,8a-tetrahydro-1H-8-oxa-cyclopenta[α]inden-4-ol], the “Percent inhibition … MCP-1” value in data set [1] was “NO (NO indicates that the compound tested did not significantly affect the transcription of the gene assessed and that its activity is comparable to vehicle, within ±20% from this control)”. The “Percent inhibition … COX-2” value in data set [2] amounted to 29%. Further, in data set [3], the “Percent inhibition … iNOS” value is on record as 37%. Moreover, in data set [4], the “Percent inhibition … IL-1β” value was found to be 47%. For the same molecule, in data set [5], the “adverse cannabimimetic activities in any” value is on record as “None”.
As for `CCCCC(C)(C)c1cc(O)c2c(c1)OC1C2CCC(C)(C)C1O` (centres unmarked) [Compound C6S-7, 3-(1,1-dimethylpentyl)-7,7-dimethyl-5a,6,7,8,9,9a-hexahydro-dibenzofuran-1,6-diol], in data set [5], the “adverse cannabimimetic activities in any” value is reported as “None”.
Turning to `CCCCCCC(C)(C)c1cc(O)c2c(c1)OC1(C)CCCC21` (stereo not drawn) [Compound C5S-2, 6-(1,1-dimethylheptyl)-8a-methyl-2,3,3a,8a-tetrahydro-1H-8-oxa-cyclo-penta[α]inden-4-ol], the “Percent inhibition … MCP-1” value in data set [1] is “NO (NO indicates that the compound tested did not significantly affect the transcription of the gene assessed and that its activity is comparable to vehicle, within ±20% from this control)”. The “Percent inhibition … COX-2” value in data set [2] was “NO (NO indicates that the compound tested did not significantly affect the transcription of the gene assessed and that its activity is comparable to vehicle, within ±20% from this control)”. For the same molecule, the “Percent inhibition … iNOS” value in data set [3] was “NO (NO indicates that the compound tested did not significantly affect the transcription of the gene assessed and that its activity is comparable to vehicle, within ±20% from this control)”. Also, the “Percent inhibition … IL-1β” value in data set [4] is 81%. Also, in data set [5], the “adverse cannabimimetic activities in any” value is on record as “None”.
For `CCCCCCC(C)(C)c1cc(O)c2c3c(oc2c1)C(=O)CCC3(C)C` [Compound C6M-9, 7-(1,1-Dimethylheptyl)-9-hydroxy-1,1-dimethyl-2,3-dihydro-1H-dibenzofuran-4-one], the “Percent inhibition … MCP-1” value in data set [1] is reported as 37%. In data set [2], the “Percent inhibition … COX-2” value is reported as 50%. Further, the “Percent inhibition … iNOS” value in data set [3] amounted to 32%. The “Percent inhibition … IL-1β” value in data set [4] is “NO (NO indicates that the compound tested did not significantly affect the transcription of the gene assessed and that its activity is comparable to vehicle, within ±20% from this control)”. For the same molecule, in data set [5], the “adverse cannabimimetic activities in any” value was “None”.
In the case of `CCCCC(C)(C)c1cc(O)c2c(c1)OC1CCCCC21` (centres unmarked) [Compound C6S-3, 3-(1,1-dimethylpentyl)-5a,6,7,8,9,9a-hexahydro-dibenzofuran-1-ol], in data set [1], the “Percent inhibition … MCP-1” value amounted to 55%. Moreover, in data set [2], the “Percent inhibition … COX-2” value worked out at 65%. Also, in data set [3], the “Percent inhibition … iNOS” value is 68%. In addition, the “Percent inhibition … IL-1β” value in data set [4] turned out to be 74%. Further, in data set [5], the “adverse cannabimimetic activities in any” value was “None”. Besides, the “decrease of number of squares crossed” value in data set [5] (non-significant) was determined as 13%. Further, in data set [5] (period of three minutes, vehicle 75.63±6.24), the “number of squares crossed (spontaneous locomotor activity)” value turned out to be 65.80±7.04.
On to `CCCCCCC(C)(C)c1cc(O)c2c(c1)OC1C(O)CCCCC21` (stereo not drawn) [Compound C7S-2, 2-(1,1-dimethylheptyl)-5,6,7,8,9,9a-hexahydro-4bH-10-oxa-benzo[α]azulen-4,9-diol], for which the “Percent inhibition … MCP-1” value in data set [1] was “NO (NO indicates that the compound tested did not significantly affect the transcription of the gene assessed and that its activity is comparable to vehicle, within ±20% from this control)”. Besides, in data set [2], the “Percent inhibition … COX-2” value was 26%. Moreover, the “Percent inhibition … iNOS” value in data set [3] was “NO (NO indicates that the compound tested did not significantly affect the transcription of the gene assessed and that its activity is comparable to vehicle, within ±20% from this control)”. For the same molecule, in data set [4], the “Percent inhibition … IL-1β” value is “NO (NO indicates that the compound tested did not significantly affect the transcription of the gene assessed and that its activity is comparable to vehicle, within ±20% from this control)”.

The values above are taken from patent US20090054376A1, “BENZOFURAN DERIVATIVES WITH THERAPEUTIC ACTIVITIES” (Pharmos Corporation, priority 2005, published 2009).
